Entries after “also recorded” stand apart in the source; their conditions may differ.
Legend:
[1] = tested on: ischemic/reperfused myocardium; experiment: In vivo phage homing to ischemia-reperfusion injured heart (phage per gram heart / phage per gram brain); design: species or system mice; settings: for Enrichment (relative enrichment compared with insertless phage): Targeted tissue Ischemic Heart; for Enrichment (relative enrichment compared with insertless phage) / Homing to ischemic/reperfused myocardium (in words): individual phage; for Homing to ischemic/reperfused myocardium (in words): ischemia-reperfusion injured animals
Procedure: Individual phage obtained from screening in ischemic-reperfused hearts were injected at 5×10^9 TU intravenously into normal animals (open squares) or animals subject to 30 minutes myocardial ischemia by occlusion of the left anterior descending (LAD) coronary artery followed by 30 minutes reperfusion (closed circles). Phage were allowed to circulate for 5 minutes prior to perfusion of the vasculature and harvesting of the heart and brain. The number of phage recovered from the heart (per gram) was normalized by the number of phage recovered from the brain (per gram). […] The data shown are-the logarithmic means and logarithmic standard errors of the multiple experiments.
The number of phage recovered from the heart (per gram) was normalized by the number of phage recovered from the brain (per gram). The data shown are the logarithmic means and logarithmic standard errors for six to seven individual experiments.
(§1) All data were calculated as the ratio of the number of phage obtained per gram of heart tissue to the number of phage obtained per gram of brain tissue. Means, standard deviations, standard errors and parametric statistics were based on the assumption that this ratio is derived from a log-normal distribution.
Ischemia-reperfusion was performed as follows using large male CD-1 mice weighing about 40 grams to facilitate the surgical protocol. Briefly, mice were anesthetized by an intramuscular injection of a mixture of xylazine (50 mg/kg) and ketamine (50 mg/kg) and subsequently intubated with an endotracheal tube and ventilated with a mixture of oxygen and room air using a Harvard Apparatus (0.05 ml; 100 bpm). The heart was exposed with a left thoracotomy, and a 7-0 suture was placed under the left anterior descending (LAD) coronary artery; the vessel was occluded by tying a knot over a small piece of polyethylene tubing (PE50). Ischemia was confirmed by cyanosis of the myocardium. After 30 minutes of occlusion, the knot was cut and blood flow restored to the region. Reperfusion was allowed to proceed for 30 minutes before phage targeting to allow for some vascular changes while limiting neutrophil recruitment to the area.

normal heart = experiment: In vivo phage homing to normal heart (phage per gram heart / phage per gram brain); design: species or system mice; settings: for Enrichment (relative enrichment compared with insertless phage): Targeted tissue Normal Heart, n=6 or 7 animals; for Enrichment (relative enrichment compared with insertless phage) / Homing to normal heart (in words): individual phage; for Enrichment in normal heart as compared to brain: normal heart versus control brain tissue, phage expressing the peptide; for Homing to normal heart (in words): normal animals
Procedure: Individual phage (5×10^9 TU) were injected intravenously and allowed to circulate for 5 minutes prior to perfusion of the vasculature and harvesting of the heart and brain. The number of phage recovered from the heart (per gram) was normalized by the number of phage recovered from the brain (per gram). Fd-tet was a phage without any additional peptide insert. […] The data shown are the logarithmic means and logarithmic standard errors of the multiple experiments.
In vivo panning was performed to identify phage that selectively home to normal coronary endothelium by injection of phage libraries and isolation of individual phage from the heart as follows. […] Both linear (X7 (SEQ ID NO: 1)) and cyclic (CX7C (SEQ ID NO: 13), CX9C (SEQ ID NO: 14), and CX11C (SEQ ID NO: 15)) libraries were used, where “C” indicates cysteine and “XN” indicates the given number of individually selected amino acids.
Libraries were administered independently with the initial titer of the various libraries. In vivo phage selection was performed as described in Pasqualini and Ruoslahti, Nature 380:364–366 (1996), with a few modifications. In both normal and ischemic targeting, 2.5×10^8 transducing units of the initial phage libraries were injected intravenously into the jugular vein. After 5 minutes of phage circulation in vivo, the heart was arrested by intraventricular injection of a hyperkalemic (30 mM KCl), hypothermic solution of DMEM, and the vasculature cleared of blood by perfusion with 5–10 ml of hyperkalemic DMEM through a left ventricular cannula. After the heart and brain were harvested, homogenized and weighed, phage were rescued by infection with K91 Kan bacteria. For the second and third rounds of selection, 200 normal or 100 ischemic clones were picked from the previous round and individually grown to saturation. Cultures were then pooled, phage particles purified and 10^10 TU of a pool reinjected into similarly treated mice.
as §1

ischemic left ventricle = experiment: Phage recovered from injured left ventricle versus right ventricle and septum, ischemic hearts; type: in vivo, mice; settings: animals after myocardial ischemia-reperfusion
Procedure: The number of phage recovered from the left ventricle (g^−1) was normalized by the number of phage recovered from the right ventricle and septum (g^−1). The overall data shown are a logarithmic mean and logarithmic standard deviation for 47 normal and 35 ischemic hearts. The data for phage bearing SEQ ID NO: 10 (R13) are for six individual animals each.
Ischemia-reperfusion was performed as follows using large male CD-1 mice weighing about 40 grams to facilitate the surgical protocol. Briefly, mice were anesthetized by an intramuscular injection of a mixture of xylazine (50 mg/kg) and ketamine (50 mg/kg) and subsequently intubated with an endotracheal tube and ventilated with a mixture of oxygen and room air using a Harvard Apparatus (0.05 ml; 100 bpm). The heart was exposed with a left thoracotomy, and a 7-0 suture was placed under the left anterior descending (LAD) coronary artery; the vessel was occluded by tying a knot over a small piece of polyethylene tubing (PE50). Ischemia was confirmed by cyanosis of the myocardium. […]
As a further test of specificity for homing to ischemic heart, phage homing to the injured left ventricle was compared to homing to the normal right ventricle and septum. […] When the ratio of phage accumulation in the left ventricle only is calculated relative to accumulation in the brain, the preferential accumulation of […] […]

Row | Substance | Enrichment (relative enrichment compared with insertless phage) [1] [fold] | Enrichment (relative enrichment compared with insertless phage) (normal heart) [fold] | Enrichment in normal heart as compared to brain (normal heart) | Homing to normal heart (in words) (normal heart) | Homing to ischemic/reperfused myocardium (in words) [1] | further results
1 | CLHRGNSC (phage displayed) [SEQ ID NO: 9] | ~2 | ~2 | at least two-fold |  |  | Enrichment (relative enrichment compared with insertless phage) (normal heart; listed as 9): 2-fold
2 | CRSWNKADNRSC (phage displayed) [SEQ ID NO: 10] | 5 |  |  | did not target the normal heart |  | Enrichment (relative enrichment compared with insertless phage) ([1]; listed as 10): 5-fold; Phage accumulation in the left ventricle only relative to accumulation in the brain ([1]; ischemia-reperfusion injured hearts, left ventricle only): 7 fold; Preferential homing to the ischemic left ventricle versus right ventricle (in words) (ischemic left ventricle): more phage were recovered from the injured left ventricle than the right ventricle; also recorded: preferentially homed to the ischemic left ventricle as compared to the uninjured right ventricle
3 | GGGVFWQ (phage displayed) [SEQ ID NO: 2] |  | ~5 |  | binds to normal heart; also recorded: strongly targeted the normal myocardium | remained enriched | Enrichment (relative enrichment compared with insertless phage) (normal heart; listed as 2): 5-fold
4 | HGRVRPH (phage displayed) [SEQ ID NO: 3] |  | ~2 | at least two-fold |  |  | Enrichment (relative enrichment compared with insertless phage) (normal heart; listed as 3): 2-fold
5 | RPGRLNG (phage displayed) [SEQ ID NO: 8] |  |  |  | did not home to normal heart; also recorded: clearly did not target the normal myocardium | did not change | 
6 | VVLVTSS (phage displayed) [SEQ ID NO: 4] |  | ~2 | at least two-fold |  |  | Enrichment (relative enrichment compared with insertless phage) (normal heart; listed as 4): 2-fold
